{"source": "paper PMC12285096", "about": "“Tirzepatide mitigates Stroke-Induced Blood-Brain barrier disruption by modulating Claudin-1 and C/EBP-α pathways” (Molecular Medicine, 2025)", "key": {"[1]": {"tested_on": "blood-brain barrier of MCAO mice", "test": "BBB permeability assay, 14C-sucrose influx in mice", "type": "in vivo, mouse", "settings": "for BBB permeability (14C-sucrose), relative to Sham = 100: C/EBP-α experiment, MCAO 272.1%, Fig. 5B; for 14C-sucrose influx rate (Ki), right cerebral hemisphere: n = 6, mean ± SD", "from_the_text": "To evaluate the therapeutic function of TZP against IS, four groups were divided: Sham, TZP, MCAO, and MCAO + TZP groups. In the Sham and MCAO groups, normal saline was intraperitoneally administered to sham-operated and MCAO-operated wide-type (WT) mice once a week for 8 weeks, respectively. In the TZP and MCAO + TZP groups, sham-operated and MCAO-operated WT mice were intraperitoneally administered with 10 nmol/kg TZP once a week for 8 weeks, respectively. To confirm the involvement of C/EBPα in the function of TZP, four groups were divided: Sham, MCAO, MCAO + TZP, and MCAO + C/EBP-α-/- + TZP. Administrations in the Sham, MCAO, and MCAO + TZP groups were described above. MCAO-operated C/EBP-α-/- mice in the MCAO + C/EBP-α-/- + TZP group received an intraperitoneal injection of 10 nmol/kg TZP every week for eight weeks. ^14C-sucrose (1 µCi, i.v.) was administered, and brain uptake was measured after 10 min. The influx rate (Ki, µL/g/min) was calculated as [^14C-sucrose]brain (dpm/g)/[^14C-sucrose]plasma (dpm/mL) × time (min)."}, "C/EBP-α": {"tested_on": "C/EBP-α", "test": "C/EBP-α expression in mouse cortex (RT-PCR, western blot)", "type": "in vivo", "settings": "Fig. 4A, B", "method": "1 mL of RNAiso Plus solution was added to the pulverized rodent cerebral cortex samples or cellular material. Following complete homogenization, the liquid fraction was extracted after high-speed centrifugation. The overall RNA pellet was then washed with 75% ethanol, and the RNA was subsequently harvested for reverse transcription. These specific procedures were carried out in accordance with the instructions provided in the PrimeScript RT reagent Kit (TaKaRa, Japan). Real-time PCR detection was performed following the experimental protocols of the Applied Biosystems 7300 instrument. Gene expression levels were determined based on cycle threshold counts.\nClaudin-1 and C/EBP-α were analyzed in brain homogenates (right hemisphere: Sham, MCAO, MCAO + TZP) and HBMVECs (Control, OGD/R, OGD/R + TZP). A lysis solution, composed of 1% protease inhibitor in RIPA buffer (Sigma-Aldrich, R0278), was introduced to samples, which were homogenized over ice for 30 min. The homogenate was centrifuged at 13,500 rpm for 10 min at 4 °C. Protein was quantified using the BCA assay kit (Sigma-Aldrich, BCA1), and 50 µg protein/lane was separated on 10% SDS-PAGE and transferred to PVDF in electrophoresis buffer at 200 mA for 2 h. The membrane was blocked with 5% skim milk in TBST for 1 h. […] Bands were detected via ECL (Bio-Rad, 1705061), quantified with ImageJ, and normalized to GAPDH."}}}
{"smiles": "CC[C@H](C)[C@H](NC(=O)[C@H](CC(C)C)NC(=O)[C@H](Cc1c[nH]c2ccccc12)NC(=O)[C@H](CCC(N)=O)NC(=O)[C@@H](NC(=O)[C@H](Cc1ccccc1)NC(=O)[C@H](C)NC(=O)[C@H](CCCCNC(=O)COCCOCCNC(=O)COCCOCCNC(=O)CC[C@H](NC(=O)CCCCCCCCCCCCCCCCCCC(=O)O)C(=O)O)NC(=O)[C@H](CCC(N)=O)NC(=O)[C@H](C)NC(=O)[C@@H](NC(=O)[C@H](CCCCN)NC(=O)[C@H](CC(=O)O)NC(=O)[C@H](CC(C)C)NC(=O)C(C)(C)NC(=O)[C@@H](NC(=O)[C@H](CO)NC(=O)[C@H](Cc1ccc(O)cc1)NC(=O)[C@H](CC(=O)O)NC(=O)[C@H](CO)NC(=O)[C@@H](NC(=O)[C@H](Cc1ccccc1)NC(=O)[C@@H](NC(=O)CNC(=O)[C@H](CCC(=O)O)NC(=O)C(C)(C)NC(=O)[C@@H](N)Cc1ccc(O)cc1)[C@@H](C)O)[C@@H](C)O)[C@@H](C)CC)[C@@H](C)CC)C(C)C)C(=O)N[C@@H](C)C(=O)NCC(=O)NCC(=O)N1CCC[C@H]1C(=O)N[C@@H](CO)C(=O)N[C@@H](CO)C(=O)NCC(=O)N[C@@H](C)C(=O)N1CCC[C@H]1C(=O)N1CCC[C@H]1C(=O)N1CCC[C@H]1C(=O)N[C@@H](CO)C(N)=O", "note": "[TZP, Tirzepatide]", "values": [{"measurement": "BBB permeability (14C-sucrose), relative to Sham = 100", "setting": "[1]; MCAO + TZP, WT mice", "result": 141.9, "unit": "%"}, {"measurement": "BBB permeability (14C-sucrose), relative to Sham = 100", "setting": "[1]; TZP-treated MCAO C/EBP-α-/- mice", "result": 205.7, "unit": "%"}, {"measurement": "14C-sucrose influx rate (Ki), right cerebral hemisphere", "setting": "[1]; MCAO + TZP group (10 nmol/kg i.p. weekly, 8 weeks), MCAO 2.582 ± 0.156, P < 0.005 vs. MCAO", "result": "1.447 ± 0.103", "unit": "µL/g/min"}, {"measurement": "14C-sucrose influx rate (Ki), right cerebral hemisphere", "setting": "[1]; TZP group (sham-operated, 10 nmol/kg i.p. weekly, 8 weeks), Sham 1.00 ± 0.028, P = 0.89 vs. Sham", "result": "0.995 ± 0.032", "unit": "µL/g/min"}, {"measurement": "C/EBP-α levels in cortex tissues (mRNA, protein)", "setting": "C/EBP-α; MCAO + TZP vs. MCAO (markedly decreased), 10 nmol/kg i.p. weekly, 8 weeks", "result": "largely enhanced"}, {"measurement": "C/EBP-α levels in cortex tissues (mRNA, protein)", "setting": "C/EBP-α; TZP group (sham-operated, 10 nmol/kg i.p. weekly, 8 weeks) vs. Sham", "result": "notably elevated"}]}
